We go through three compounds from patent US4772590A, “Oily composition of aclarubicin or hydrochloride thereof” (priority 1983, dated 1988).

The term solubility denotes the dissolved amount per volume that the medium holds.

A short description of data set [1]: solubility of aclarubicin or its hydrochloride in solvents and in fats and oils. The class given is physicochemical. The following applies: for solubility: organic solvent or mixture.
Data set [2] is described as follows: solubilization of aclarubicin or aclarubicin hydro-chloride in fats and oils by acids. The class given is physicochemical.

Each structure is given as a SMILES string. Values after ≈ are worked out from the molar mass of the structure shown. Counter-ions that a name gives are not always drawn. Like-named read-outs stand apart in the source and are kept apart here.

Turning to `CC[C@@]1(O)C[C@H](O[C@H]2C[C@H](N(C)C)[C@H](O[C@H]3C[C@H](O)[C@H](O[C@H]4CCC(=O)[C@H](C)O4)[C@H](C)O3)[C@H](C)O2)c2c(cc3c(c2O)C(=O)c2c(O)cccc2C3=O)[C@H]1C(=O)OC` [Aclarubicin hydrochloride], in data set [1] (acetone), the solubility in acetone result is reported as “freely soluble”. Moreover, the solubility in ether result in data set [1] (ether) is given as “practically insoluble”. Further, the “solubility in fats and oils” value in data set [1] (fats and oils) was “very sparingly soluble”. In addition, the solubility in methanol result in data set [1] (methanol) is “freely soluble”. In addition, the solubility in n-hexane result in data set [1] (n-hexane) is “practically insoluble”. The solubility in data set [1] (olive oil, olive oil, aclarubicin hydrochloride, read-out: solubility in olive oil) was roughly 4 µg/mL; in data set [1] (sesame oil, sesame oil, aclarubicin hydrochloride, read-out: solubility in sesame oil) it was 16 µg/mL. Also, the solubility in water entry in data set [1] (water) is given as “freely soluble”.

As to `CC[C@@]1(O)C[C@H](O[C@H]2C[C@H](N(C)C)[C@H](O[C@H]3C[C@H](O)[C@H](O[C@H]4CCC(=O)[C@H](C)O4)[C@H](C)O3)[C@H](C)O2)c2c(cc3c(c2O)C(=O)c2c(O)cccc2C3=O)[C@H]1C(=O)OC` [Aclarubicin, methyl(1R, 2R, 4S)-2-ethyl-1,2,3,4,6,11-hexahydro-2,5,7-trihydroxy-6,11-dioxo-4-{[2,3,6-trideoxy-4-O-[2,6-dideoxy-4-O-((2R,6S)-tetrahydro-6-methyl-5-oxo-2H-pyran-2-yl)-α-1-lyxohexopyranocyl]-3-dimethylamino-α-1-lyxo-hexopyranocyl]oxy}-1-naphthacene carboxylate], the solubility in data set [1] (olive oil, olive oil, aclarubicin, read-out: solubility in olive oil) is 10000 µg/mL (≈ 12.3 mM); in data set [1] (sesame oil, sesame oil, aclarubicin, read-out: solubility in sesame oil), 10000 µg/mL (≈ 12.3 mM).

As for `O=C(O)/C=C/C(=O)O` [fumaric acid], the “dissolution of polycarboxylic acid in fats and oils” value in data set [2] is “not dissolved in fats and oils”.
